In US5026711A, “4-amino quinolines and naphthyridines and their use as medicines” (priority 1988, dated 1991):

Legend:
[1] = biological target: T1, benzodiazepine receptors of the peripheral type (Felis catus, UniProt A0ABI7ZQW3); assay: inhibition of specific binding of [3H] PK11195 to peripheral type benzodiazepine receptors, membrane proteins of cat brain; conditions: [3H] PK11195 0.5 nM, cat brain membranes, 4° C., 2h30; read-out: IC50 (peripheral)
T1 sequence (A0ABI7ZQW3 15-183): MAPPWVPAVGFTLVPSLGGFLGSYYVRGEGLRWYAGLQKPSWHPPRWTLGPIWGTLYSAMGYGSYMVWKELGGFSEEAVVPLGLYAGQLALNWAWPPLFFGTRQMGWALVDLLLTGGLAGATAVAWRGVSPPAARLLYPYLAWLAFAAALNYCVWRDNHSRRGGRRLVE
Protocol: The method is similar to that described by J. Benavides et al. in Brain Res. Bull. 13 p. 69-77 (1984) and references cited therein.
Suspensions of membrane proteins of cat brain were prepared as described by J. Benavides.
The assays of inhibition of the binding of [^3 H]
Non specific binding was defined as the amount of [^3 H]

[2] = biological target: central benzodiazepine receptors; assay: inhibition of specific binding of [3H] flunitrazepam to central benzodiazepine receptors, rat brain; conditions: 4° C., pH 7.4
Protocol: (b) determination of the concentration of the product under study inhibiting 50% of the specific binding of flunitrazepam to the central receptors.
The brains of rats were removed after decapitation and ground, then placed in suspension in an aqueous solution of sucrose (0.32M). The mixture is centrifuged and the pellet is resuspended to give a homogenous suspension in a TRIS-HCl buffered solution (50 mM; pH=7.4). Aliquots of this suspension are incubated at 4° C. after addition of [^3 H] flunitrazepam, alone or with increasing amounts of the compound to be tested.

Row | SMILES | IC50 [1] | IC50 [2]
1 | CN(C(=O)CCNc1c(C(=O)c2ccccc2)cnc2cccnc12)c1ccc(Cl)cc1 [compound 26731] | 2.74 nM | > 10000 nM
2 | CN(C(=O)CNc1c(C(=O)c2ccccc2)cnc2cc(Cl)ccc12)c1ccc(C(F)(F)F)cc1 [compound 26778] | 27 nM | > 10000 nM
3 | CN(C(=O)CNc1c(C(=O)c2ccccc2)cnc2cc(C(F)(F)F)ccc12)c1ccc(Cl)cc1 [compound 26794] | 11 nM | > 10000 nM
4 | CN(C(=O)CNc1c(C(=O)c2ccccc2)cnc2cccnc12)c1ccccc1 [compound 26803] | 7.1 nM | 5430 nM
5 | CN(C(=O)CNc1c(C(=O)c2ccccc2)c[n+]([O-])c2cccnc12)c1ccc(Cl)cc1 [compound 26838] | 10.8 nM | 7650 nM
6 | CN(CC(=O)N(C)c1ccc(Cl)cc1)c1c(C(=O)c2ccccc2)cnc2cc(Cl)ccc12 [compound 26841] | 17 nM | > 10000 nM
7 | CN(C(=O)CNc1c(C(=O)c2ccccc2)cnc2cccnc12)c1ccc(C(F)(F)F)cc1 [compound 26847] | 1.59 nM | > 10000 nM
8 | CCCN(CCC)C(=O)CC(C)Nc1c(C(=O)OCC)cnc2cc(Cl)cnc12 (stereo not shown) [compound 26869] | 172 nM | > 20000 nM
9 | CN(C(=O)CNc1c(C(=O)c2ccccc2)cnc2cc(Cl)c(Cl)nc12)c1ccc(Cl)cc1 [compound 26918] | 0.16 nM | 1680 nM
10 | CN(C(=O)CNc1c(C(=O)c2ccccc2)cnc2cnccc12)c1ccc(Cl)cc1 [compound 26919] | 52 nM | > 10000 nM
11 | CCCN(CCC)C(=O)C(C)Nc1c(C(=O)OCC)cnc2cc(F)ccc12 (stereo not shown) [compound 26920] | 18 nM | > 20000 nM
12 | CN(C(=O)CNc1c(C(=O)c2ccccc2)cnc2cccnc12)c1c(Cl)cccc1Cl [compound 26947] | 0.79 nM | 18600 nM
13 | Cc1ccc(N(C)C(=O)CNc2c(C(=O)c3ccccc3)cnc3cccnc23)cc1 [compound 26980] | 1.31 nM | 9750 nM
14 | C=CCN(C(=O)CNc1c(C(=O)c2ccccc2)cnc2cccnc12)c1ccc(Cl)cc1 [compound 27181] | 0.89 nM | > 10000 nM
15 | COc1ccc(N(C)C(=O)CNc2c(C(=O)c3ccccc3)cnc3cc(Br)ccc23)cc1 [compound 27195] | 1 nM | > 10000 nM
16 | COc1ccc(N(C)C(=O)CNc2c(C(=O)c3ccccc3)cnc3cc(Cl)ccc23)cc1 [compound 27196] | 0.8 nM | > 10000 nM
17 | CCOc1ccc(N(C)C(=O)CNc2c(C(=O)c3ccccc3)cnc3cc(Cl)ccc23)cc1 [compound 27271] | 68 nM | > 10000 nM
